Measured values as given in US20260274853A1, “BIFUNCTIONAL COMPOUNDS CONTAINING PYRIMIDINE DERIVATIVES FOR DEGRADING CYCLIN-DEPENDENT KINASE 2 VIA UBIQUITIN PROTEASOME PATHWAY” (NIKANG THERAPEUTICS, INC., priority 2022, published 2026).

What follows are molecules tested against T1, CDK2 (Homo sapiens, UniProt P24941) (assay: Inhibition of CDK2: phospho-Rb (S807/811) HTRF measurement in OVCAR3 cells). Conditions: 24 h compound treatment, read-out: pRb (nM), IC50 in pRB(S807/811) assay.
T1 construct: High-Throughput Measurement of Cellular Endogenous CDK2; endogenous in cells; host or cells: OVCAR3
Type: cell-based
Experimental: Phosphorylation of RB protein at S807/811 were measured using HTRF phospho-RB cellular kits (Cat #64RBS807PEG) from Cisbio.
On Day 1, OVCAR3 (dependent on CDK2) cells were seeded into 96-well tissue-culture treated plates at 20,000 cells/well in 200 μL and incubated overnight at 37° C. in CO2 atmosphere. On Day 2, the cells were treated with test compounds at concentrations from 0.3 to 10,000 nM using HP D300 digital dispenser. Twenty-four hours after compound treatment, cell culture media was removed by flicking the plate and tapping the plate against clean paper towel. Immediately 30 μL 1× lysis buffer was supplemented from the kit and the plate was incubated at room temperature on shaker for 30 min. After homogenization by pipetting up and down, 8 μL cell lysate from 96-well cell culture plate was transferred to 384-well small volume white detection plate. 2 μL premixed detection solution was added and the plate was covered with sealer. To prepare the detection solution, d2 conjugated-phospho-RB antibody and Eu-cryptate conjugated phosphor-RB antibody were diluted into detection buffer following manufacturer's instruction. Detection plates were incubated for 4 h at room temperature and read on ClarioStar (BMG Labtech) in TR-FRET mode (665 nM and 620 nM). The TR-FRET ratio (665 nM/620 nM) was plotted against the compound concentration and normalized to DMSO controls. Half maximal inhibition concentration (IC50) values are calculated with a four-parameter logistic fit using GraphPad Prism (version 8; La Jolla, CA).
In the table below, A indicates a IC50 of less than 0.1 μM; B indicates a IC50 of greater than or equal to 0.1 μM but less than 0.5 μM; C indicates a IC50 of greater than or equal to 0.5 μM but less than 1 μM; and D indicates a […] of greater than or equal to 1 μM but less than 10 μM.

SMILES | IC50 [nM]
O=C1CCC(N2CCN(Cc3cccc(S(=O)(=O)N4CCC(Nc5ncc(C(F)(F)F)c(-c6cnn(CC(F)(F)F)c6)n5)CC4)c3)CC2)C(=O)N1 (centres unmarked) [Example 76, 3-(4-(3-((4-((4-(1-(2,2,2-trifluoro-ethyl)-1H-pyrazol-4-yl)-5-(trifluoromethyl)-pyrimidin-2-yl)amino)-piperidin-1-yl)-sulfonyl)benzyl)piperazin-1-yl)-piperidine-2,6-dione] | 100 to 500
O=C1CCC(N2CCN(Cc3cccc(S(=O)(=O)N4CCC(Nc5ncc(C(F)(F)F)c(-c6cnn(CC(F)(F)F)c6)n5)CC4)c3)C3CC32)C(=O)N1 (centres unmarked) [Example 63, 3-(5-(3-((4-((4-(1-(2,2,2-trifluoro-ethyl)-1H-pyrazol-4-yl)-5-(trifluoromethyl)-pyrimidin-2-yl)amino)-piperidin-1-yl)-sulfonyl)benzyl)-2,5-diazabicyclo[4.1.0]-heptan-2-yl)-piperidine-2,6-dione] | 100 to 500
Cn1nc(N2CCC(=O)NC2=O)c2ccc(C3CCN(C(c4cccc(S(=O)(=O)N5CCC(Nc6ncc(C(F)(F)F)c(-c7cnn(CC(F)(F)F)c7)n6)CC5)c4)C(F)(F)F)CC3)cc21 (centres unmarked) [Example 91, 1-(1-methyl-6-(1-(2,2,2-trifluoro-1-(3-((4-((4-(1-(2,2,2-trifluoroethyl)-1H-pyrazol-4-yl)-5-(trifluoromethyl)-pyrimidin-2-yl)amino)piperidin-1-yl)-sulfonyl)phenyl)ethyl)piperidin-4-yl)-1H-indazol-3-yl)dihydro-pyrimidine-2,4(1H,3H)-dione] | 100 to 500
Cn1nc(N2CCC(=O)NC2=O)c2ccc(N3CCC(CN4CCN(S(=O)(=O)N5CCC(Nc6ncc(C(F)(F)F)c(-c7cnn(CC(F)(F)F)c7)n6)CC5)CC4)CC3)cc21 [Example 97, 1-(1-methyl-6-(4-((4-((4-((4-(1-(2,2,2-trifluoroethyl)-1H-pyrazol-4-yl)-5-(trifluoromethyl)pyrimidin-2-yl)amino)-piperidin-1-yl)sulfonyl)piperazin-1-yl)-methyl)piperidin-1-yl)-1H-indazol-3-yl)dihydropyrimidine-2,4(1H,3H)-dione] | 100 to 500
Cn1nc(N2CCC(=O)NC2=O)c2ccc(C3CCN(CC(C)(C)Cc4cccc(S(=O)(=O)N5CCC(Nc6ncc(C(F)(F)F)c(-c7cnn(CC(F)(F)F)c7)n6)CC5)c4)CC3)cc21 [Example 98, 1-(6-(1-(2,2-dimethyl-3-(3-((4-((4-(1-(2,2,2-trifluoroethyl)-1H-pyrazol-4-yl)-5-(trifluoromethyl)pyrimidin-2-yl)amino)-piperidin-1-yl)sulfonyl)-phenyl)propyl)-piperidin-4-yl)-1-methyl-1H-indazol-3-yl)dihydro-pyrimidine-2,4(1H,3H)-dione] | < 100
O=C1CCN(C2CCCN(Cc3cccc(S(=O)(=O)N4CCC(Nc5ncc(C(F)(F)F)c(-c6cnn(CC(F)(F)F)c6)n5)CC4)c3)C2)C(=O)N1 (centres unmarked) [Example 80, 1-(1-(3-((4-((4-(1-(2,2,2-trifluoro-ethyl)-1H-pyrazol-4-yl)-5-(trifluoromethyl)-pyrimidin-2-yl)amino)-piperidin-1-yl)sulfonyl)benzyl)-piperidin-3-yl)dihydropyrimidine-2,4(1H,3H)-dione] | 100 to 500
Cn1nc(N2CCC(=O)NC2=O)c2ccc(C3CCN(Cc4cccc(S(=O)(=O)N5CC[C@H](Nc6ncc(C(F)(F)F)c(-c7cnn(CC(F)F)c7)n6)[C@H](F)C5)c4)CC3)cc21 (racemic) [Example 37] | < 100
Cn1nc(N2CCC(=O)NC2=O)c2ccc(C3CCN(Cc4cccc(S(=O)(=O)N5CCC(Nc6ncc(C(F)(F)F)c(-c7cnn(CC(F)(F)F)c7)n6)CC5)c4C(F)(F)F)CC3)cc21 [Example 87, 1-(1-methyl-6-(1-(3-((4-((4-(1-(2,2,2-trifluoroethyl)-1H-pyrazol-4-yl)-5-(trifluoromethyl)pyrimidin-2-yl)-amino)-piperidin-1-yl)sulfonyl)-2-(trifluoro-methyl)benzyl)piperidin-4-yl)-1H-indazol-3-yl)dihydro-pyrimidine-2,4(1H,3H)-dione] | 500 to 1000
O=C1CCC(Nc2ccc(N3CCN(Cc4cccc(S(=O)(=O)N5CCC(Nc6ncc(C(F)(F)F)c(-c7cnn(CC(F)(F)F)c7)n6)CC5)c4)CC3)cc2)C(=O)N1 (centres unmarked) [Example 53] | < 100
O=C1CCN(c2ccc(N3CCN(Cc4cccc(S(=O)(=O)N5CCC(Nc6ncc(C(F)(F)F)c(-c7cnn(-c8ccccc8F)c7)n6)CC5)c4)CC3)cc2)C(=O)N1 [Example 71, 1-(4-(4-(3-((4-((4-(1-(2-fluorophenyl)-1H-pyrazol-4-yl)-5-(trifluoromethyl)-pyrimidin-2-yl)amino)piperidin-1-yl)sulfonyl)benzyl)piperazin-1-yl)-phenyl)dihydropyrimidine-2,4(1H,3H)-dione] | 100 to 500
Cn1nc(N2CCC(=O)NC2=O)c2ccc(C3CCN(CC4CCN(S(=O)(=O)[C@H]5CC[C@H](Nc6ncc(C(F)(F)F)c(-c7cnn(CC(F)(F)F)c7)n6)CC5)CC4)CC3)cc21 [Example 94, 1-(1-methyl-6-(1-((1-(((1r,4r)-4-((4-(1-(2,2,2-trifluoroethyl)-1H-pyrazol-4-yl)-5-(trifluoromethyl)pyrimidin-2-yl)-amino)cyclohexyl)sulfonyl)piperidin-4-yl)methyl)piperidin-4-yl)-1H-indazol-3-yl)dihydropyrimidine-2,4(1H,3H)-dione] | 100 to 500
O=C1CCN(C2CCN(Cc3cccc(S(=O)(=O)N4CCC(Nc5ncc(C(F)(F)F)c(-c6cnn(CC(F)(F)F)c6)n5)CC4)c3)CC2)C(=O)N1 [Example 46] | 100 to 500
O=C1CCC(N2Cc3cc(N4CCC(CN5CCN(c6cccc(S(=O)(=O)N7CCC(Nc8ncc(C(F)(F)F)c(-c9cnn(CC(F)(F)F)c9)n8)CC7)c6)CC5)CC4)ccc3C2=O)C(=O)N1 (centres unmarked) [Example 45, 3-(1-oxo-5-(4-((4-(3-((4-((4-(1-(2,2,2-trifluoroethyl)-1H-pyrazol-4-yl)-5-(trifluoromethyl)pyrimidin-2-yl)-amino)-piperidin-1-yl)sulfonyl)-phenyl)piperazin-1-yl)methyl)-piperidin-1-yl)isoindolin-2-yl)-piperidine-2,6-dione] | 100 to 500
Cn1nc(N2CCC(=O)NC2=O)c2ccc(N3CC4CCC(C3)N4Cc3cccc(S(=O)(=O)N4CC[C@H](Nc5ncc(C(F)(F)F)c(-c6cnn(CC(F)(F)F)c6)n5)[C@H](F)C4)c3)cc21 [Example 85, 1-(6-(8-(3-(((3R,4S)-3-fluoro-4-((4-(1-(2,2,2-trifluoroethyl)-1H-pyrazol-4-yl)-5-(trifluoromethyl)pyrimidin-2-yl)-amino)-piperidin-1-yl)sulfonyl)benzyl)-3,8-diazabicyclo[3.2.1]octan-3-yl)-1-methyl-1H-indazol-3-yl)dihydro-pyrimidine-2,4(1H,3H)-dione] | 100 to 500
Cn1nc(N2CCC(=O)NC2=O)c2ccc(C3CCN(Cc4cccc(S(=O)(=O)N5CC[C@@H](Nc6ncc(C(F)(F)F)c(-c7cnn(CC(F)(F)F)c7)n6)[C@@H](F)C5)c4)CC3(F)F)cc21 (stereo partly drawn) [Example 66, 1-(6-(3,3-difluoro-1-(3-(((3S,4R)-3-fluoro-4-((4-(1-(2,2,2-trifluoroethyl)-1H-pyrazol-4-yl)-5-(trifluoromethyl)-pyrimidin-2-yl)amino)piperidin-1-yl)-sulfonyl)benzyl)piperidin-4-yl)-1-methyl-1H-indazol-3-yl)dihydro-pyrimidine-2,4(1H,3H)-dione] | 1000 to 10000
Cn1nc(N2CCC(=O)NC2=O)c2ccc(C3CCN(Cc4cc(S(=O)(=O)N5CCC(Nc6ncc(C(F)(F)F)c(-c7cnn(CC(F)(F)F)c7)n6)CC5)ccc4C(F)(F)F)CC3(F)F)cc21 (centres unmarked) [Example 55] | 1000 to 10000
Cn1nc(N2CCC(=O)NC2=O)c2ccc(C3CCN(CCc4cccc(S(=O)(=O)[C@H]5CC[C@H](Nc6ncc(C(F)(F)F)c(-c7cnn(CC(F)(F)F)c7)n6)CC5)c4)CC3)cc21 [Example 95, 1-(1-methyl-6-(1-(3-(((1r,4r)-4-((4-(1-(2,2,2-trifluoroethyl)-1H-pyrazol-4-yl)-5-(trifluoromethyl)pyrimidin-2-yl)-amino)-cyclohexyl)sulfonyl)phenethyl)piperidin-4-yl)-1H-indazol-3-yl)dihydro-pyrimidine-2,4(1H,3H)-dione] | 100 to 500
